The IC50 is the concentration needed to halve the response being measured. High values mean a need for much substance, low ones inhibition by little substance.

Molecules are shown by their SMILES.

Chain of PDE9A (O76083 whole entry): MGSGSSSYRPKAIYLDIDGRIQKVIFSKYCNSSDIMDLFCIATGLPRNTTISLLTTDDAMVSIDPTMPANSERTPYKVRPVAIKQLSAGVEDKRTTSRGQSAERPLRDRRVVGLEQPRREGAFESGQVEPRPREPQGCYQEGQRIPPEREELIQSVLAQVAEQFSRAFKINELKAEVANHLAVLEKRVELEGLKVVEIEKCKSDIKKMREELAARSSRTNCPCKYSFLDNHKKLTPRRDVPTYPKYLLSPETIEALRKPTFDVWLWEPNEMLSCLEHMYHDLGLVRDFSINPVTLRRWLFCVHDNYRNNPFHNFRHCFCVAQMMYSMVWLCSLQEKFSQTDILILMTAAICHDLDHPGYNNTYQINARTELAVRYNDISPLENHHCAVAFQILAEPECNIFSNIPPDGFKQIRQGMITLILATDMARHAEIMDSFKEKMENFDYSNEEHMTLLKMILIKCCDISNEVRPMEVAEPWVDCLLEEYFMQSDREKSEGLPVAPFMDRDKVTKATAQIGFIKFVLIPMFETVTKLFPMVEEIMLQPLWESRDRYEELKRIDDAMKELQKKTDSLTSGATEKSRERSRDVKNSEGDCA

This assay has as its target PDE9A (Homo sapiens (Human), UniProt O76083). Briefly: PDE9A inhibition, fluorescence polarization assay (IMAP-FP screening express kit). As to conditions: Fl-cGMP substrate 100 nM, PDE9A 5 ng/ml, 1 hour at room temperature. Format: biochemical. On the procedure: The inhibitory activity of the representative compounds according to the present invention against phosphodiesterase 9A was tested based on the polarization assay (IMAP-FP screening express kit) provided by MDS (MDS Analytical Technologies, Sunyvale, CA, USA). As a buffer solution, a reaction solution (a reaction solution containing 0.01% Tween 20 provided by MDS was diluted 5 times, then 5 mM DTT is added) and a polarization detection solution (binding solution A and B provided by MDS were mixed at a ratio of 3:1 and IMAP binding reagent 1/600 was added) were prepared. 100 μM of the substrate (Fl-cGMP substrate; MDS) and 3.6 μg/ml of the enzyme PDE9A (ab54113; abcam) were prepared. 3.6 μg/ml PDE9A and 100 μM substrate were diluted to 20 ng/ml (final reaction concentration: 5 ng/ml) and 400 nM (final reaction concentration: 100 nM), respectively. The buffer solution used for all dilution and preparation processes was 1× reaction solution with 1 mM DTT added, and the polarization detection solution was used to induce polarization at the end.
The prepared samples were dispensed on black microplates (Multiwell 384 well plates, #3573, Corning Life Sciences, Lowell, MA, USA) using a 16-channel pipette (multi 16-channel, Finnpipette, Thermo Scientific, Essex, UK). The total reaction volume per well is 20 μl. At this time, 10 μl of 2% DMSO, 5 μl of substrate solution, and 5 μl of reaction solution were used as a negative control, and 10 μl of 2% DMSO, 5 μl of substrate solution, and 5 μl of PDE9A solution were used as a positive control. As the experimental group, 10 μl of the compound prepared in Example, 5 μl of the substrate solution, and 5 μl of the PDE9A solution were used. After pretreatment between the compound and the enzyme was performed for about 10 minutes before the enzyme-substrate reaction, 5 μl of cGMP was added to induce the enzyme reaction. During the reaction, each compound, enzyme, and substrate occupied 50%, 25%, and 25% of the total volume, respectively, and they were prepared at high concentrations of 2, 4, and 4 times, respectively, immediately before addition. After the enzymatic reaction, it was shaken lightly for 1 minute and the enzyme reaction was induced at room temperature for 1 hour. Then, 60 μl of a polarization detection solution prepared in advance was added to induce polarization.
Nanoparticles composed of trivalent metal ions are mixed in the fluorescence detection solution, which combines with phosphoric acid expose by enzymatic reaction to increase the molecular weight and induce polarization. After leaving for 2 hours at room temperature, the polarization (Fluorescence Polarization, FP) value was measured using a multilabel counter (Envision, PerkinElmer, Turku, Finland) (emission wavelength: P-535 nm, S-535 nm, excitation wavelength: 480 nm), and the result was expressed as an IC50 value, which is the concentration of the compound that inhibited PDE9A by 50% in vitro (Table 2).
(In general: In fluorescence polarisation assays a small probe gives low polarisation when free and higher when bound to something large.)
The compound `O=c1[nH]c(SCc2nc3cc(Cl)cc(Cl)c3o2)nc2c1cnn2C1CCC(F)(F)CC1` [Example 43, 6-(((5,7-dichlorobenzo[d]oxazol-2-yl)methyl)thio)-1-(4,4-difluorocyclohexyl)-1,5-dihydro-4H-pyrazolo[3,4-d]pyrimidin-4-one] showed an IC50 of 120 nM. In turn, `Cc1cc(C)c2oc(CSc3nc4c(cnn4C4CCC(F)(F)CC4)c(=O)[nH]3)nc2c1` [Example 44, 1-(4,4-difluorocyclohexyl)-6-(((5,7-dimethylbenzo[d]oxazol-2-yl)methyl)thio)-1,5-dihydro-4H-pyrazolo[3,4-d]pyrimidin-4-one] showed an IC50 of 15 nM.

In turn, `COc1ccc2oc(CSc3nc4c(cnn4C4CCC(F)(F)CC4)c(=O)[nH]3)nc2c1` [Example 45, 1-(4,4-difluorocyclohexyl)-6-(((5-methoxybenzo[d]oxazol-2-yl)methyl)thio)-1,5-dihydro-4H-pyrazolo[3,4-d]pyrimidin-4-one] showed an IC50 of 8 nM. Consider `COc1ccc2nc(CSc3nc4c(cnn4C4CCC(F)(F)CC4)c(=O)[nH]3)oc2c1` [Example 46, 1-(4,4-difluorocyclohexyl)-6-(((6-methoxybenzo[d]oxazol-2-yl)methyl)thio)-1,5-dihydro-4H-pyrazolo[3,4-d]pyrimidin-4-one], for which the IC50 came out at 3 nM.

`O=c1[nH]c(SCc2nc3cc(C(F)(F)F)ccc3o2)nc2c1cnn2C1CCC(F)(F)CC1` [Example 47, 1-(4,4-difluorocyclohexyl)-6-(((5-(trifluoromethyl)benzo[d]oxazol-2-yl)methyl)thio)-1,5-dihydro-4H-pyrazolo[3,4-d]pyrimidin-4-one] registered a half-maximal inhibitory concentration (IC50) of 120 nM. With `O=c1[nH]c(SCc2nc3ccc([N+](=O)[O-])cc3o2)nc2c1cnn2C1CCOCC1` [Example 48, 6-(((6-nitrobenzo[d]oxazol-2-yl)methyl)thio)-1-(tetrahydro-2H-pyran-4-yl)-1,5-dihydro-4H-pyrazolo[3,4-d]pyrimidin-4-one], the IC50 turned out to be 23 nM. With `O=c1[nH]c(SCc2nc3cc([N+](=O)[O-])ccc3o2)nc2c1cnn2C1CCOCC1` [Example 49, 6-(((5-nitrobenzo[d]oxazol-2-yl)methyl)thio)-1-(tetrahydro-2H-pyran-4-yl)-1,5-dihydro-4H-pyrazolo[3,4-d]pyrimidin-4-one] the figure was 32 nM. The compound `O=c1[nH]c(SCc2nc3c([N+](=O)[O-])cccc3o2)nc2c1cnn2C1CCOCC1` [Example 50, 6-(((4-nitrobenzo[d]oxazol-2-yl)methyl)thio)-1-(tetrahydro-2H-pyran-4-yl)-1,5-dihydro-4H-pyrazolo[3,4-d]pyrimidin-4-one] yielded an IC50 of 130 nM. Against the preceding compound, the IC50 is about 4.1-fold higher. The compound `O=c1[nH]c(SCc2nc3cc(Cl)c([N+](=O)[O-])cc3o2)nc2c1cnn2C1CCOCC1` [Example 51, 6-(((5-chloro-6-nitrobenzo[d]oxazol-2-yl)methyl)thio)-1-(tetrahydro-2H-pyran-4-yl)-1,5-dihydro-4H-pyrazolo[3,4-d]pyrimidin-4-one] returned an IC50 of 35 nM. `Cc1cccc2oc(CSc3nc4c(cnn4C4CCOCC4)c(=O)[nH]3)nc12` [Example 52, 6-(((4-methylbenzo[d]oxazol-2-yl)methyl)thio)-1-(tetrahydro-2H-pyran-4-yl)-1,5-dihydro-4H-pyrazolo[3,4-d]pyrimidin-4-one] had an IC50 of 17 nM. For the compound `CC(C)(C)c1ccc2oc(CSc3nc4c(cnn4C4CCOCC4)c(=O)[nH]3)nc2c1` [Example 53, 6-(((5-(tert-butyl)benzo[d]oxazol-2-yl)methyl)thio)-1-(tetrahydro-2H-pyran4-yl)-1,5-dihydro-4H-pyrazolo[3,4-d]pyrimidin-4-one], the half-maximal inhibitory concentration (IC50) came out at 45 nM.

`O=c1[nH]c(SCc2nc3cc(Cl)cc(Cl)c3o2)nc2c1cnn2C1CCOCC1` [Example 54, 6-(((5,7-dichlorobenzo[d]oxazol-2-yl)methyl)thio)-1-(tetrahydro-2H-pyran4-yl)-1,5-dihydro-4H-pyrazolo[3,4-d]pyrimidin-4-one] gave an IC50 of 19 nM.

For the compound `Cc1cc(C)c2oc(CSc3nc4c(cnn4C4CCOCC4)c(=O)[nH]3)nc2c1` [Example 55, 6-(((5,7-dimethylbenzo[d]oxazol-2-yl)methyl)thio)-1-(tetrahydro-2H-pyran-4-yl)-1,5-dihydro-4H-pyrazolo[3,4-d]pyrimidin-4-one], the IC50 came out at 10 nM. With `COc1ccc2nc(CSc3nc4c(cnn4C4CCOCC4)c(=O)[nH]3)oc2c1` [Example 56, 6-(((6-methoxybenzo[d]oxazol-2-yl)methyl)thio)-1-(tetrahydro-2H-pyran-4-yl)-1,5-dihydro-4H-pyrazolo[3,4-d]pyrimidin-4-one] the figure was 3 nM.

The values above are taken from US12195469B2, “Compounds having PDE9A inhibitory activity, and pharmaceutical uses thereof” (KOREA RESEARCH INSTITUTE OF CHEMICAL TECHNOLOGY, priority 2018, dated 2025).
